According to patent US7842711B2, “Indazolecarboxamide derivatives for the treatment and prevention of malaria” (Sanofi-Aventis, priority 2004, dated 2010):
Where a name gives a salt, the structure may show the parent alone. Read-outs that look alike come from different tables or passages of the source.

Experiments:
[1] = tested on: P. falciparum strain FcM29 (highly resistant to chloroquine); test: antimalarial activity assay, radioactive micromethod of Desjardins (tritiated hypoxanthine incorporation), strain FcM29; assay type: cell-based; conditions: Plasmodium falciparum, Erythrocyte, read-out: IC50 (concentration of the compound required to inhibit the parasite growth by 50%)
Protocol: Two strains of P. falciparum are used, the origin of which is Colombia (FcB1, strain moderately resistant to chloroquine) and Cameroon (FcM29, strain highly resistant to chloroquine). These strains of P. falciparum are cultured continuously in human red blood cells according to the method of Trager and Jensen (W. Trager, J. Jensen, Science, 1976, 193, 673-675): the parasites are maintained in human red blood cells (O±), diluted to 2% parasiteamia in an RPMI 1640 medium supplemented with 25 mM of Hepes, 24 mM of NaHCO3 and 2 mM of L-glutamine, and supplemented with 5% of human serum of all groups. The parasites are incubated at 37° C. in a humid atmosphere and at 5% CO2.
The antimalarial activity assays are carried out according to the radioactive micromethod of Desjardins (R. E. Desjardins, C. J. Canfield, J. D. Haynes, J. D. Chulay, Antimicrob. Agents Chemother., 1979, 16, 710-718). Each molecule is tested in triplicate. The assays are carried out in 96-well microplates. The strains of P. falciparum are cultured in solutions of RPMI 1640 supplemented with 5% of human serum with a 2% haematocrit and a 1.5% parasitaemia. For each assay, the parasites are incubated with decreasing concentrations of compounds of formula (I) for 48 h at 37° C. in a humid atmosphere and at 5% CO2.
The first dilution of the test compound is prepared at 1 mg/ml in dimethyl sulphoxide. The dilution range for the successive daughter solutions is also prepared in dimethyl sulphoxide. Each daughter dilution is subsequently diluted to 1/50 in RPMI 1640 supplemented with 5% of human serum, all the dilutions being prepared at 37° C. These dilutions are then added to the parasites in culture in the microplates. After addition of the test compound, the parasites are in culture in RPMI 1640 containing 5% of human serum and 1% of dimethyl sulphoxide. The parasite growth is measured by the incorporation of tritiated hypoxanthine (added 24 h after the beginning of exposure to the test compound) compared with incorporation in the absence of the test compound (taken as 100%). The IC50 values (concentration of the compound required to inhibit the parasite growth by 50%) are determined by plotting the percentage inhibition as a function of the log of the dose by means of the GraphPad Prism 4® processing software (GraphPad software, Inc., 5755 Oberlin Drive, # 110, San Diego, Calif. 92121, USA).

[2] = strain FcM29, 48 h incubation in human red blood cells, tritiated hypoxanthine incorporation

melting point [°C]	IC50 [1, 2] [nM]	Structure (SMILES)	IC50 ([1]; 48 h) [nM]
> 250	600	O=C(Nc1ccncc1)c1n[nH]c2ccc(-c3cncc4ccccc34)cc12 [Compound No. 3, N-(Pyridin-4-yl)-5-isoquinolin-4-yl-1H-indazole-3-carboxamide]	
> 250	130	O=C(Nc1ccncc1)c1n[nH]c2ccc(-c3cncc4[nH]ccc34)cc12 [Compound No. 10, N-(Pyridin-4-yl)-5-(1H-pyrrolo[2,3-c]pyridin-4-yl)-1H-indazole-3-carboxamide]	
> 250	800	O=C(Nc1ccncc1)c1n[nH]c2ccc(-c3cn[nH]c3)cc12 [Compound No. 11, 5-(1H-Pyrazol-4-yl)-N-(pyridin-4-yl)-1H-indazole-3-carboxamide]	
		CCNCc1cccc(NC(=O)c2n[nH]c3ccc(-c4cncc5ccccc45)cc23)c1 [Compound No. 14, N-{3-[(Ethylamino)methyl]phenyl}-5-isoquinolin-4-yl-1H-indazole-3-carboxamide dihydrochloride]	272
> 250	800	O=C(Nc1ccncc1)c1n[nH]c2ccc(-c3ccc(Cl)nc3)cc12 [compound 12, 5-(6-chloropyridin-3-yl)-N-pyridin-4-yl-1H-indazole-3-carboxamide]	
> 250	406	CCNCc1cccc(NC(=O)c2n[nH]c3ccc(-c4cncc5[nH]ccc45)cc23)c1 [compound 21, N-{3-[(ethylamino)methyl]phenyl}-5-(1H-pyrrolo[2,3-c]pyridin-4-yl)-1H-indazole-3-carboxamide]	

Structure (SMILES)	melting point [°C]	IC50 [1, 2] [nM]	IC50 ([1]; 48 h) [nM]
CCNCc1cccc(NC(=O)c2n[nH]c3ccc(-c4cncc5ccccc45)cc23)c1 (as salt: HCl) [Compound No. 14, N-{3-[(Ethylamino)methyl]phenyl}-5-isoquinolin-4-yl-1H-indazole-3-carboxamide dihydrochloride]	> 135		
